The values that follow are results of earlier work, collected in patent US11160861B2, “Adjuvanting systems and water-free vaccine compositions comprising a polyI:C polynucleotide adjuvant and a lipid-based adjuvant” (priority 2015, dated 2021).

Molecules are shown by their SMILES.

For data set [1] the following is noted: variety of animal models and Phase I clinical trial in humans (Moyle 2008; Wiedemann 1991).
The subject of data set [2] is murine DCs. The conditions noted are these: in vitro stimulation of murine DCs, small amounts of adjuvant relative to other TLR agonists (Welters 2007).

Regarding `CCCCCCCCCCCCCCCC(=O)N[C@@H](CSC[C@@H](COC(=O)CCCCCCCCCCCCCCC)OC(=O)CCCCCCCCCCCCCCC)C(=O)O` [Pam3Cys, tripalmitoyl-S-glyceryl-cysteine], the Side effects entry in data set [1] was “no reported side effects”. The “Production of pro-inflammatory cytokines IL-12p40, IL-6 and TNFα” value in data set [2] is “high levels”.
